Data taken from patent US7115608B2, “Pyridinone and pyridinethione derivatives having HIV inhibiting properties” (Centre National de la Recherche Schentifique, priority 2000, dated 2006).

What was measured:
HIV-1 = settings: for IC50: dose achieving 50% protection of HIV-infected MT-4 cells, MTT, OD 540 nm; for SI: selectivity index, ratio of CC50 to IC50
Procedure: A rapid, sensitive and automated assay procedure was used for the in vitro evaluation of anti-HIV agents. […] Inhibition of the HIV-induced cytopathic effect was used as the end point. The viability of both HIV- and mock-infected cells was assessed spectrophotometrically via the in situ reduction of 3-(4,5-dimethylthiazol-2-yl)-2,5-diphenyltetrazolium bromide (MTT). […] The percent protection achieved by the compound in HIV-infected cells was calculated by the following formula:
[formula] expressed in %, whereby (ODT)HIV is the optical density measured with a given concentration of the test compound in HIV-infected cells; (ODC)HIV is the optical density measured for the control untreated HIV-infected cells; (ODC)MOCK is the optical density measured for the control untreated mock-infected cells; all optical density values were determined at 540 nm. […] The ratio of CC50 to IC50 was defined as the selectivity index (SI).

mock-infected MT-4 cells = test: Cytotoxicity in mock-infected MT-4 cells (MTT); type: cell-based; settings: concentration reducing absorbance of mock-infected MT-4 control by 50%

Structure (SMILES)	IC50 (HIV-1)	SI (HIV-1)	CC50 (mock-infected MT-4 cells)
C=Cc1cccc(Oc2c(CC)c(C)[nH]c(=O)c2I)c1 [compound 296]	2 nM	12589	25000 nM
Cc1cc(C)cc(Oc2c(CCCOCc3ccccc3)c(C)[nH]c(=O)c2I)c1 [compound 250]	5 nM	5012	25000 nM
Cc1cc(C)cc(Sc2c(Cn3cccn3)c(C)[nH]c(=O)c2I)c1 [compound 589]	1.3 nM	>7943	> 10000 nM
Cc1cc(C)cc(Oc2c(CN3CCN(c4ccccn4)CC3)c(C)[nH]c(=O)c2I)c1 [compound 696]	15.8 nM	>2512	> 40000 nM
CCc1c(C)[nH]c(=O)c(I)c1Oc1cccc(C=CC=NO)c1 [compound 309]	6.3 nM	1585	10000 nM
CCc1c(C)[nH]c(=O)c(I)c1Oc1cc(C)cc(/C=C/C#N)c1 [compound 551]	1 nM	12589	13000 nM
CCOC(=O)NCc1c(C)[nH]c(=O)c(I)c1Oc1cc(C)cc(C)c1 [compound 218]	7.9 nM	>1259	> 10000 nM
Cc1cc(C)cc(Oc2c(COCc3ccccc3)c(C)[nH]c(=O)c2I)c1 [compound 245]	6.3 nM	>15849	> 100000 nM
CCOC(=O)CSCc1c(C)[nH]c(=O)c(I)c1Oc1cc(C)cc(C)c1 [compound 99]	10 nM	>10000	> 100000 nM
CCc1c(C)[nH]c(=O)c(I)c1Oc1cccc(Br)c1 [compound 307]	5 nM	>6310	> 32000 nM
Cc1cc(C)cc(Sc2c(/C=N/OCc3ccccc3)c(C)[nH]c(=O)c2I)c1 [compound 31]	7.9 nM	>12589	> 100000 nM
COCCc1c(C)[nH]c(=O)c(I)c1Oc1cc(C)cc(C)c1 [compound 264]	1 nM	>10000	> 10000 nM
COCCOCc1c(C)[nH]c(=O)c(I)c1Oc1cc(C)cc(C)c1 [compound 253]	1.6 nM	>6310	> 10000 nM
Cc1cc(C)cc(Sc2c(Cn3cccc3)c(C)[nH]c(=O)c2I)c1 [compound 618]	2 nM	25119	50000 nM
Cc1cc(C)cc(Oc2c(Cn3cncn3)c(C)[nH]c(=O)c2I)c1 [compound 574]	2 nM	>50119	> 100000 nM
Cc1cc(C)cc(Oc2c(COCCO)c(C)[nH]c(=O)c2I)c1 [compound 254]	2 nM	>15849	> 32000 nM
Cc1cc(C)cc(Oc2c(C=CC#N)c(C)[nH]c(=O)c2I)c1 [compound 140]	6.3 nM	>1585	> 10000 nM
Cc1cc(C)cc(Oc2c(CCO)c(C)[nH]c(=O)c2I)c1 [compound 241]	1.6 nM	>63096	> 100000 nM
CCc1c[nH]c(=O)c(I)c1Oc1cccc(C)c1 [compound 314]	7.9 nM	>3981	> 32000 nM
CCc1c(C)[nH]c(=O)c(C2CC2)c1Oc1cc(C)cc(C)c1 [compound 230]	6.3 nM	1259	8000 nM
Cc1cccc(Sc2c3c([nH]c(=O)c2I)CCCC3)c1 [compound 222]	7.9 nM	251	2000 nM

Structure (SMILES)	IC50 (HIV-1)	SI (HIV-1)	CC50 (mock-infected MT-4 cells)
CCc1c(C)[nH]c(=O)c(I)c1Sc1cc(Cl)cc(Cl)c1 [compound 115]	2.5 nM	3162	8000 nM
CON=Cc1c(C)[nH]c(=O)c(I)c1Oc1cc(C)cc(C)c1 [compound 232]	6.3 nM	>5012	> 32000 nM
CCc1c(C)[nH]c(=O)c(I)c1Oc1cccc(N)c1 [compound 121]	10 nM	>10000	> 100000 nM
CCc1c(C)[nH]c(=O)c(I)c1Oc1ccccc1 [compound 328]	1.6 nM	>63096	> 100000 nM
Cc1cc(C)cc(Sc2c(CSCc3cccs3)c(C)[nH]c(=O)c2I)c1 [compound 8]	10 nM	>10000	> 100000 nM
CCc1c(C)[nH]c(=O)c(I)c1Oc1cccc(/C=C/C#N)c1 [compound 319]	2 nM	>50119	> 100000 nM
CC(=O)c1ccc(N2CCN(Cc3c(C)[nH]c(=O)c(I)c3Oc3cc(C)cc(C)c3)CC2)cc1 [compound 694]	10 nM		63000 nM
CCc1c(CCCO)[nH]c(=O)c(I)c1Oc1cc(C)cc(C)c1 [compound 217]	6.3 nM	>1585	> 10000 nM
CCOC(=O)c1c(Oc2cc(C)cc(C)c2)c(CC)c(C)[nH]c1=O [compound 324]	5 nM	6310	32000 nM
CCc1c(C)[nH]c(=O)c(OC)c1Oc1cc(C)cc(C)c1 [compound 277]	2.5 nM	>39811	> 100000 nM
CCc1c(C)[nH]c(=O)c(I)c1Oc1cccc(C)c1 [compound 306]	1.6 nM	>19953	> 32000 nM
CCSCc1c(C)[nH]c(=O)c(I)c1Oc1cc(C)cc(C)c1 [compound 124]	1.3 nM	>7943	> 10000 nM
CCc1c(C)[nH]c(=O)c(Sc2ccccc2)c1Oc1cc(C)cc(C)c1 [compound 280]	10 nM	2512	25000 nM
CCc1c(C)[nH]c(=O)c(I)c1Cc1cccc(C)c1 [compound 286]	2.5 nM	>12589	> 32000 nM
Cc1cc(C)cc(Oc2c(Cn3ccnn3)c(C)[nH]c(=O)c2I)c1 [compound 713]	2.5 nM	>39811	> 100000 nM
CCc1c(C)[nH]c(=O)c(I)c1Oc1cc(C)cc(/C=C/C#N)c1 [compound 83]	2.5 nM	3162	8000 nM
CCc1c(C)[nH]c(=O)c(I)c1Oc1cccc(C=O)c1 [compound 321]	6.3 nM	>15849	> 100000 nM
CCc1c(C)[nH]c(=O)c(Br)c1Oc1cc(C)cc(C)c1 [compound 284]	2 nM	>5012	> 10000 nM
Cc1cc(C)cc(Oc2c(COCc3ccsc3)c(C)[nH]c(=O)c2I)c1 [compound 244]	4 nM	>25119	> 100000 nM
CCc1c(C)[nH]c(=O)c(C(F)(F)F)c1Oc1cc(C)cc(C)c1 [compound 409]	3.2 nM	12589	40000 nM
CCc1c(C)[nH]c(=O)c(Br)c1Sc1cc(C)cc(C)c1 [compound 109]	2.5 nM	12589	32000 nM

Structure (SMILES)	IC50 (HIV-1)	SI (HIV-1)	CC50 (mock-infected MT-4 cells)
CCc1c(COC(N)=O)[nH]c(=O)c(I)c1Oc1cc(C)cc(C)c1 [compound 105]	2 nM	>5012	> 10000 nM
CCc1c(C)[nH]c(=O)c(I)c1Oc1cc(/C(C)=C/C#N)cc(/C(C)=C/C#N)c1 [compound 684]	0.8 nM	>125893	> 100000 nM
CCc1c(C)[nH]c(=O)c(I)c1Sc1cccc(C)c1 [compound 88]	2.5 nM	>39811	> 100000 nM
CON=Cc1c(C)[nH]c(=O)c(I)c1Sc1cc(C)cc(C)c1 [compound 46]	2 nM	>50119	> 100000 nM
Cc1cc(C)cc(Oc2c(CCCO)c(C)[nH]c(=O)c2I)c1 [compound 242]	0.6 nM	>158489	> 100000 nM
Cc1cc(C)cc(Oc2c(CSCc3ccccc3)c(C)[nH]c(=O)c2I)c1 [compound 92]	6.3 nM	>5012	> 32000 nM
COc1ccccc1Cc1c(C)[nH]c(=O)c(I)c1Oc1cc(C)cc(C)c1 [compound 249]	1.3 nM	>25119	> 32000 nM
CCOCc1c[nH]c(=O)c(I)c1Oc1cc(C)cc(C)c1 [compound 256]	2 nM	>5012	> 10000 nM
Cc1cc(C)cc(Oc2c(CN3CCN(C(=O)c4ccco4)CC3)c(C)[nH]c(=O)c2I)c1 [compound 700]	7.9 nM	>1000	> 8000 nM
CCc1c(C)[nH]c(=O)c(SC)c1Oc1cc(C)cc(C)c1 [compound 272]	2 nM	12589	25000 nM
Cc1cc(C)cc(Oc2c(CNC=O)c(C)[nH]c(=O)c2I)c1 [compound 219]	10 nM	>3162	> 32000 nM
Cc1cc(C)cc(Oc2c(CSCc3ccco3)c(C)[nH]c(=O)c2I)c1 [compound 375]	1.3 nM	>79433	> 100000 nM
Cc1cc(C)cc(Sc2c(Cn3ccnc3)c(C)[nH]c(=O)c2I)c1 [compound 606]	1.3 nM	15849	20000 nM
CCc1c(C)[nH]c(=O)c(I)c1Oc1cc(C)cc(CCl)c1 [compound 81]	6.3 nM	1995	13000 nM
CCc1c(C)[nH]c(=O)c(I)c1Oc1cccc(/C=C/C=C/C#N)c1 [compound 299]	2.5 nM	32	
Cc1cccc(Sc2c3c([nH]c(=O)c2I)CCCCC3)c1 [compound 221]	6.3 nM	>3162	> 20000 nM
CCc1c(C)[nH]c(=O)c(I)c1Oc1cccc(CO)c1 [compound 322]	6.3 nM	>15849	> 100000 nM
CCc1c(C)[nH]c(=O)c(I)c1Oc1cccc([N+](=O)[O-])c1 [compound 297]	4 nM	>7943	> 32000 nM
Cc1cc(C)cc(Oc2c(CNC(=O)c3cc4ccccc4o3)c(C)[nH]c(=O)c2I)c1 [compound 143]	6.3 nM	>1585	> 10000 nM
